From patent US10590140B2, “Tetrahydropyrimidodiazepine and dihydropyridodiazepine compounds for treating pain and pain related conditions” (ESTEVE PHARMACEUTICALS, S.A., priority 2016, dated 2020)
Like-named read-outs stand apart in the source and are kept apart here.

Columns and labels:
[1] = biological target: human α2δ-1 subunit of Cav2.2 calcium channel (Homo sapiens (Human), UniProt P54289); test: Binding assay to human α2δ-1 subunit of Cav2.2 calcium channel ([3H]-Gabapentin); settings: read-out: Ki (nM) α2δ-1
Sequence of human α2δ-1 subunit of Cav2.2 calcium channel (P54289 25-1103): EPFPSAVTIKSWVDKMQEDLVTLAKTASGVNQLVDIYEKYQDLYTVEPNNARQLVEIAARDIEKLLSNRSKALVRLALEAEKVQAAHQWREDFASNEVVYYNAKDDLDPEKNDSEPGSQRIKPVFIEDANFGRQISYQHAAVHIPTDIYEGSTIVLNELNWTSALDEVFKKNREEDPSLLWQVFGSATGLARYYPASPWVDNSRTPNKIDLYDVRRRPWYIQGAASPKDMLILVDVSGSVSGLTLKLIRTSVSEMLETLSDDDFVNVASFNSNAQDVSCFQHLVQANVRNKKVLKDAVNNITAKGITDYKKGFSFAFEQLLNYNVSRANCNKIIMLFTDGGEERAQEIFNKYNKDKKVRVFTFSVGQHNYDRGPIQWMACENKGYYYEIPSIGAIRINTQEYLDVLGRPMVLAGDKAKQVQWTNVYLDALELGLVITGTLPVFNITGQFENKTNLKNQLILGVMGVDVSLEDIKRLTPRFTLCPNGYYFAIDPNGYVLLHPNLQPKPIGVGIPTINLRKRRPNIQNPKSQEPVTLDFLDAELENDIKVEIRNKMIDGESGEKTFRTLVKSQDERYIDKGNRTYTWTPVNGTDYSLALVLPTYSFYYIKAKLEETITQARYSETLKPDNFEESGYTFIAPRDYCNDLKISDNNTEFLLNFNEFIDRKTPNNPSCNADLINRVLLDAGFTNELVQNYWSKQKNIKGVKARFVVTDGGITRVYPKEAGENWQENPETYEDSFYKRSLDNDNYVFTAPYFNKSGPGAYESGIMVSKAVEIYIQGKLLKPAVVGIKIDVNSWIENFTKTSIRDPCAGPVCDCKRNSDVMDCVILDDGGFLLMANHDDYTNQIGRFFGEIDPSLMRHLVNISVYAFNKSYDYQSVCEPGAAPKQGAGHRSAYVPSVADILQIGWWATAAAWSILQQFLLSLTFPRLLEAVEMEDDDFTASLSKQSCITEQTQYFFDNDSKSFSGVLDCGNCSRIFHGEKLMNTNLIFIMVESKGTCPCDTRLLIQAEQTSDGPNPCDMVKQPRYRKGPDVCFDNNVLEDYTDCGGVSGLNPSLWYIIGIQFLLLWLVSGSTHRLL
In short: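 [3H]-gabapentin binding, 60 min at 27° C; nonspecific binding defined with 10 μM pregabalin. Terminated by filtration on PEI-presoaked GF/C filters, ice-cold 50 mM Tris-HCl pH 7.4 washes, then scintillation counting.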

[2] = biological target: human norepinephrine transporter (NET) (Homo sapiens (Human), UniProt P23975); test: Binding assay to human norepinephrine transporter (NET) ([3H]-Nisoxetin); settings: Table 2, dual compounds; [3H]-Nisoxetin binding
Sequence of human norepinephrine transporter (NET) (P23975 whole entry): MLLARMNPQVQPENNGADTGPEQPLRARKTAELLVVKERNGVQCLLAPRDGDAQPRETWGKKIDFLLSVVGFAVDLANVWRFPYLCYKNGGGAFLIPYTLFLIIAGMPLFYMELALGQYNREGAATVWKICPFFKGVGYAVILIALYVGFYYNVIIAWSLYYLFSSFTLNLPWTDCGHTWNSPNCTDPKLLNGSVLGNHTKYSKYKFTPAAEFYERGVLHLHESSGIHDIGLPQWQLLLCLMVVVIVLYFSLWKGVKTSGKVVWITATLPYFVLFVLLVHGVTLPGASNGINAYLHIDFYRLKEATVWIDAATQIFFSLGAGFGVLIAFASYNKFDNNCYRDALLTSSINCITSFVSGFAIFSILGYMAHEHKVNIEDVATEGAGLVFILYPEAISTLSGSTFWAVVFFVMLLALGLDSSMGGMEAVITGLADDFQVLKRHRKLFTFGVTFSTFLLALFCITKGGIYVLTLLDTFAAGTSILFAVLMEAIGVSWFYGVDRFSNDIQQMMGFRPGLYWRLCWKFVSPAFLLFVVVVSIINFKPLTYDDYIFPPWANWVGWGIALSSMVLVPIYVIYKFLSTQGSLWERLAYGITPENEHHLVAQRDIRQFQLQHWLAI
Description: Binding Assay to Human Norepinephrine Transporter (NET).
Human norepinephrine transporter (NET) enriched membranes (5 μg) were incubated with 5 nM of radiolabeled [3H]-Nisoxetin in assay buffer containing 50 mM Tris-HCl, 120 mM NaCl, 5 mM KCl, pH 7.4.
NSB (non specific binding) was measured by adding 1 μM. After 60 min incubation at 4° C., binding reaction was terminated by filtering through Multiscreen GF/C (Millipore) presoaked in 0.5% polyethyleneimine in Vacuum Manifold Station, followed by 3 washes with ice-cold filtration buffer containing 50 mM Tris-HCl, 0.9% NaCl, pH 7.4.
Filter plates were dried at 60° C. for 1 hour and 30 μl of scintillation cocktail were added to each well before radioactivity reading.

[3] = Table 2, dual compounds, [3H]-Gabapentin binding
[4] = binding to α2δ-1, [3H]-Gabapentin

SMILES | Ki [1, 3] | Ki [1, 4] | Ki [2]
CNCCC(OCc1cccc(N2CCN(C)c3nc(SC)ncc3C2=O)c1)c1ccccc1 (stereo not shown) [Example 163, 9-methyl-6-(3-((3-(methylamino)-1-phenylpropoxy)methyl)phenyl)-2-(methylthio)-6,7,8,9-tetrahydro-5H-pyrimido[4,5-e][1,4]diazepin-5-one] | 500 to 3000 nM | 500 to 3000 nM | 100 to 500 nM
CNCCC(Oc1ccc(CN2CCN(C)c3nc(OC)ncc3C2=O)cc1)c1sccc1C (stereo not shown) [Example 388, 2-methoxy-9-methyl-6-(4-(3-(methylamino)-1-(3-methylthiophen-2-yl)propoxy)benzyl)-6,7,8,9-tetrahydro-5H-pyrimido[4,5-e][1,4]diazepin-5-one] | > 3000 nM | > 3000 nM | < 100 nM
CCNc1ncc2c(n1)N(C)CCN(c1cccc(-c3nnc(CN4CCC(c5cccc(O)c5)(N(C)C)CC4)o3)c1)C2=O [Example 442, 6-(3-(5-((4-(dimethylamino)-4-(3-hydroxyphenyl)piperidin-1-yl)methyl)-1,3,4-oxadiazol-2-yl)phenyl)-2-(ethylamino)-9-methyl-6,7,8,9-tetrahydro-5H-pyrimido[4,5-e][1,4]diazepin-5-one] | < 100 nM | < 100 nM | < 100 nM
CCNc1ncc2c(n1)N(C)CCN(c1cccc(-n3cc(CNCC4CC4)nn3)c1)C2=O [Example 285, 6-(3-(4-(((cyclopropylmethyl)amino)methyl)-1H-1,2,3-triazol-1-yl)phenyl)-2-(ethylamino)-9-methyl-6,7,8,9-tetrahydro-5H-pyrimido[4,5-e][1,4]diazepin-5-one] | 100 to 500 nM | 100 to 500 nM | 100 to 500 nM
CNCC[C@H](Oc1ccc(CN2CCN(C)c3cc(C)ncc3C2=O)cc1)c1cccs1 [Example 308, (S)-1,8-dimethyl-4-(4-(3-(methylamino)-1-(thiophen-2-yl)propoxy)benzyl)-1,2,3,4-tetrahydro-5H-pyrido[4,3-e][1,4]diazepin-5-one] | 100 to 500 nM | 100 to 500 nM | 100 to 500 nM
CCNc1ncc2c(n1)N(C)CCN(c1ccc(OC(CNC)c3ccccc3)cc1)C2=O (stereo not shown) [Example 159, 2-(ethylamino)-9-methyl-6-(4-(2-(methylamino)-1-phenylethoxy)phenyl)-6,7,8,9-tetrahydro-5H-pyrimido[4,5-e][1,4]diazepin-5-one] | > 3000 nM | > 3000 nM | > 1000 nM
CCc1ncc2c(n1)N(C)CCN(c1cccc(COC(CCNC)c3ccccc3)c1)C2=O (stereo not shown) [Example 354, 2-ethyl-9-methyl-6-(3-((3-(methylamino)-1-phenylpropoxy)methyl)phenyl)-6,7,8,9-tetrahydro-5H-pyrimido[4,5-e][1,4]diazepin-5-one] | 500 to 3000 nM | 500 to 3000 nM | 100 to 500 nM
CNCC[C@@H](OCc1cccc(N2CCN(C)c3nc(C)ncc3C2=O)c1)c1ccccc1 [Example 206, (R)-2,9-dimethyl-6-(3-((3-(methylamino)-1-phenylpropoxy)methyl)phenyl)-6,7,8,9-tetrahydro-5H-pyrimido[4,5-e][1,4]diazepin-5-one] | 100 to 500 nM | 500 to 3000 nM | 100 to 500 nM
CNCCC(OCc1ccc(N2CCN(C)c3nc(C)ncc3C2=O)cc1)c1ccccc1 (stereo not shown) [Example 353, 2,9-dimethyl-6-(4-((3-(methylamino)-1-phenylpropoxy)methyl)phenyl)-6,7,8,9-tetrahydro-5H-pyrimido[4,5-e][1,4]diazepin-5-one] | > 3000 nM | > 3000 nM | < 100 nM
CCNc1ncc2c(n1)N(C)CCN(c1cccc(COC3(c4ccccc4)CCNCC3)c1)C2=O [Example 176, 2-(ethylamino)-9-methyl-6-(3-(((4-phenylpiperidin-4-yl)oxy)methyl)phenyl)-6,7,8,9-tetrahydro-5H-pyrimido[4,5-e][1,4]diazepin-5-one] | 500 to 3000 nM | 500 to 3000 nM | > 1000 nM
CCNc1ncc2c(n1)N(C)CCN(c1cccc(-n3cc(CN(C)CCc4ccccc4)cn3)c1)C2=O [Example 252, 2-(ethylamino)-9-methyl-6-(3-(4-((methyl(phenethyl)amino)methyl)-1H-pyrazol-1-yl)phenyl)-6,7,8,9-tetrahydro-5H-pyrimido[4,5-e][1,4]diazepin-5-one] | 500 to 3000 nM | 500 to 3000 nM | 100 to 500 nM
CNCC[C@H](Oc1ccc(CN2CCN(C)c3nc(N(C)C)ncc3C2=O)cc1)c1cccs1 [Example 419, (S)-2-(dimethylamino)-9-methyl-6-(4-(3-(methylamino)-1-(thiophen-2-yl)propoxy)benzyl)-6,7,8,9-tetrahydro-5H-pyrimido[4,5-e][1,4]diazepin-5-one] | 100 to 500 nM | 100 to 500 nM | 100 to 500 nM
CCNc1ncc2c(n1)N(C)CCN(Cc1ccc(OC(CNC)c3ccccc3)cc1)C2=O (stereo not shown) [Example 201, 2-(ethylamino)-9-methyl-6-(4-(2-(methylamino)-1-phenylethoxy)benzyl)-6,7,8,9-tetrahydro-5H-pyrimido[4,5-e][1,4]diazepin-5-one] | > 3000 nM | > 3000 nM | < 100 nM

More lines, now with the values ahead:

Ki [1, 3] | Ki [1, 4] | Ki [2] | SMILES
100 to 500 nM | 100 to 500 nM | 100 to 500 nM | CNCC[C@@H](OCc1cccc(N2CCN(C)c3nc(SC)ncc3C2=O)c1)c1cccs1 [Example 209, (R)-9-methyl-6-(3-((3-(methylamino)-1-(thiophen-2-yl)propoxy)methyl)phenyl)-2-(methylthio)-6,7,8,9-tetrahydro-5H-pyrimido[4,5-e][1,4]diazepin-5-one]
500 to 3000 nM | 500 to 3000 nM | < 100 nM | CCNc1ncc2c(n1)N(C)CCN(c1cccc(-n3cc(CN(C)Cc4ccc(F)cc4)nn3)c1)C2=O [Example 287, 2-(ethylamino)-6-(3-(4-(((4-fluorobenzyl)(methyl)amino)methyl)-1H-1,2,3-triazol-1-yl)phenyl)-9-methyl-6,7,8,9-tetrahydro-5H-pyrimido[4,5-e][1,4]diazepin-5-one]
100 to 500 nM | 100 to 500 nM | 100 to 500 nM | CCNc1cc2c(cn1)C(=O)N(Cc1ccc(O[C@@H](CCNC)c3cccs3)cc1)CCN2C [Example 383, (S)-8-(ethylamino)-1-methyl-4-(4-(3-(methylamino)-1-(thiophen-2-yl)propoxy)benzyl)-1,2,3,4-tetrahydro-5H-pyrido[4,3-e][1,4]diazepin-5-one]
100 to 500 nM | 100 to 500 nM | 100 to 500 nM | CCNc1ncc2c(n1)N(C)CCN(c1cccc(OCCN(C)Cc3ccccc3)c1)C2=O [Example 264, 6-(3-(2-(benzyl(methyl)amino)ethoxy)phenyl)-2-(ethylamino)-9-methyl-6,7,8,9-tetrahydro-5H-pyrimido[4,5-e][1,4]diazepin-5-one]
100 to 500 nM | 100 to 500 nM | 100 to 500 nM | CCNc1ncc2c(n1)N(C)CCN(c1cccc(-n3cnc(CN(C)Cc4ccccc4)c3)c1)C2=O [Example 253, 6-(3-(4-((benzyl(methyl)amino)methyl)-1H-imidazol-1-yl)phenyl)-2-(ethylamino)-9-methyl-6,7,8,9-tetrahydro-5H-pyrimido[4,5-e][1,4]diazepin-5-one]
 | > 3000 nM |  | CSc1ncc2c(n1)N(C)CCN(c1cccc(COC(CCN(C)C(=O)OC(C)(C)C)c3ccccc3)c1)C2=O (stereo not shown) [Example 9, tert-butyl methyl(3-((3-(9-methyl-2-(methylthio)-5-oxo-5,7,8,9-tetrahydro-6H-pyrimido[4,5-e][1,4]diazepin-6-yl)benzyl)oxy)-3-phenylpropyl) carbamate]
